*1 amine or outer side, *2 acyl side, *3 side chain or, on linkers, in order; H or OH if unused. Where a SMILES comes first, the peptide text is derived from it. Bridges are numbered along the chain shown (N, C = ends). [ ]: non-standard residue; d: D form. The star is where a group is joined. ξ: configuration not given here. NMeAbu(3,3-F2-piperidino) = CN[C@@H](CCN1CCCC(F)(F)C1)C(=O)O; Phe(3-OMe,4-CONHMe) = CNC(=O)c1ccc(C[C@H](N)C(=O)O)cc1OC; X15 = CCCCN(CC(=O)C(C)[C@@H](CC(C)C)C(=O)[*:2])[*:1]; NMeAbu(4-morpholino) = CN[C@@H](CCN1CCOCC1)C(=O)O; X10 = CN([C@@H](CCN1CCC(F)(F)CC1)C(=O)[*:2])[*:1]; CH2(1,2,4-oxadiazolon-3-yl) = O=c1[nH]c(C*)no1; NMePhe(3-Cl) = CN[C@@H](Cc1cccc(Cl)c1)C(=O)O; Ethyl(2-morpholino) = C1CN(CC*)CCO1; NMeF = CN[C@@H](Cc1ccccc1)C(=O)O; NMeGABA = CN(CCCC(=O)[*:2])[*:1]; NMeI = CC[C@H](C)[C@H](NC)C(=O)O; NMeL = CN[C@@H](CC(C)C)C(=O)O; Propyl(2R-OH) = C[C@@H](O)C*; NMeV = CN[C@H](C(=O)O)C(C)C; NMeAbu = CC[C@H](NC)C(=O)O; NMeA = CN[C@@H](C)C(=O)O; Piperidide = C1CCN(*)CC1; NBuGly = CCCCNCC(=O)O; Isopentyl = CC(C)CC*; ξS = NC(CO)C(=O)O; Sar = CNCC(=O)O; tBu = CC(C)(C)*
assay: in vitro; conditions: human, Caco-2, Caco-2

SMILES | Papp
CC(C)CCOC[C@@H]1NC(=O)[C@H](CCN2CCCC(F)(F)C2)N(C)C(=O)[C@H](Cc2ccccc2)N(C)C(=O)CN(C)C(=O)[C@H]([C@@H](C)O)NC(=O)[C@H](CC(C)C)N(C)C(=O)[C@H](CC(C)C)NC(=O)[C@H](Cc2ccccc2)N(C)C(=O)CN(C)C(=O)C[C@@H](C(=O)N2CCCCC2)NC(=O)[C@H](CC(C)C)N(C)C1=O [pd393] ([Sar][NMeF]L[NMeL]T[Sar][NMeF][NMeAbu(3,3-F2-piperidino)]S(Isopentyl)[NMeL]D-Piperidide; lactam N-11) | 2.8 ×10⁻⁶ cm/s
CCCCN1CC(=O)N(C)[C@@H](CC(C)C)C(=O)N[C@@H](CC(C)C)C(=O)N(C)[C@@H](Cc2ccccc2)C(=O)N(C)[C@@H](C)C(=O)N[C@H](C(=O)N2CCCCC2)CC(=O)N[C@H](C(C)C)C(=O)N(C)[C@@H](Cc2ccccc2)C(=O)N[C@@H](CC(C)C)C(=O)N(C)[C@@H](CCN2CCC(F)(F)CC2)C(=O)N[C@@H]([C@@H](C)O)C1=O [pd394] ([dV][NMeF]L[X10]T[NBuGly][NMeL]L[NMeF][NMeA]D-Piperidide; lactam N-11) | 1.8 ×10⁻⁶ cm/s
CCCCN1CC(=O)N(C)[C@@H](Cc2ccccc2)C(=O)N[C@@H](CC(C)C)C(=O)N(C)[C@@H](CC(C)C)C(=O)N[C@@H]([C@@H](C)O)C(=O)N(C)CC(=O)N(C)[C@@H](Cc2ccccc2)C(=O)N(C)[C@@H](CCN2CCC(F)(F)CC2)C(=O)N[C@@H](CC(C)C)C(=O)N(C)[C@@H](C(C)C)C(=O)N[C@H](C(=O)N2CCCCC2)CC1=O [pd395] ([NBuGly][NMeF]L[NMeL]T[Sar][NMeF][X10]L[NMeV]D-Piperidide; lactam N-11) | 1.7 ×10⁻⁶ cm/s
CCCCN1CC(=O)N(C)[C@@H](CC(C)C)C(=O)N[C@@H](COC(C)(C)C)C(=O)N(C)[C@@H](Cc2ccccc2)C(=O)N(C)[C@@H](C(C)C)C(=O)N[C@H](C(=O)N2CCCCC2)CC(=O)N[C@H](CC(C)C)C(=O)N(C)[C@@H](Cc2ccccc2)C(=O)N[C@@H](CC(C)C)C(=O)N(C)[C@@H](CCN2CCOCC2)C(=O)N[C@@H]([C@@H](C)O)C1=O [pd452] ([dL][NMeF]L[NMeAbu(4-morpholino)]T[NBuGly][NMeL]S(tBu)[NMeF][NMeV]D-Piperidide; lactam N-11) | 1.3 ×10⁻⁶ cm/s
CCCCN1CC(=O)N(C)[C@@H](C(C)C)C(=O)N[C@H](C(=O)N2CCCCC2)CC(=O)N(C)[C@@H](C)C(=O)N[C@@H](CC(C)C)C(=O)N(C)[C@@H](CC(C)C)C(=O)N(C)[C@@H](Cc2ccccc2)C(=O)N[C@@H](CC(C)C)C(=O)N(C)[C@@H](Cc2ccccc2)C(=O)N(C)[C@@H](CCN2CCOCC2)C(=O)N[C@@H]([C@@H](C)O)C1=O [pd453] ([NMeA]L[NMeL][NMeF]L[NMeF][NMeAbu(4-morpholino)]T[NBuGly][NMeV]D-Piperidide; lactam N-11) | 2.3 ×10⁻⁶ cm/s
CCCCN1CC(=O)N(C)[C@@H](CCN2CCOCC2)C(=O)N[C@H](C(=O)N2CCCCC2)CC(=O)N(C)[C@@H](C)C(=O)N[C@@H](CC(C)C)C(=O)N(C)[C@@H](CC(C)C)C(=O)N(C)[C@@H](Cc2ccccc2)C(=O)N[C@@H](CC(C)C)C(=O)N(C)[C@@H](Cc2ccccc2)C(=O)N(C)[C@@H](CC(C)C)C(=O)N[C@@H]([C@@H](C)O)C1=O [pd454] ([NMeA]L[NMeL][NMeF]L[NMeF][NMeL]T[NBuGly][NMeAbu(4-morpholino)]D-Piperidide; lactam N-11) | 1.2 ×10⁻⁶ cm/s
CCCCN1CC(=O)N(C)[C@@H](CC(C)C)C(=O)N[C@H](C(=O)N2CCCCC2)CC(=O)N(C)[C@@H](CC)C(=O)NC(COCCN2CCOCC2)C(=O)N(C)[C@@H](CC(C)C)C(=O)N(C)[C@@H](CC)C(=O)N[C@@H](C(C)C)C(=O)N(C)[C@@H](Cc2ccccc2)C(=O)N(C)[C@@H](CC(C)C)C(=O)N[C@@H]([C@@H](C)O)C1=O (stereo partly drawn) [pd483] ([NMeAbu][ξS](Ethyl(2-morpholino))[NMeL][NMeAbu]V[NMeF][NMeL]T[NBuGly][NMeL]D-Piperidide; lactam N-11) | 1.9 ×10⁻⁶ cm/s
CCCCN1CC(=O)N(C)[C@@H](Cc2ccccc2)C(=O)N(C)[C@@H](CC(C)C)C(=O)N[C@@H](C(C)C)C(=O)N(C)[C@@H](CC(C)C)C(=O)N[C@H](C(=O)N2CCCCC2)CC(=O)N(C)CC(=O)N(C)[C@@H](CC(C)C)C(=O)NC(COCCN2CCOCC2)C(=O)N(C)[C@@H](CC(C)C)C(=O)N[C@@H]([C@@H](C)O)C1=O (stereo partly drawn) [pd484] ([Sar][NMeL][ξS](Ethyl(2-morpholino))[NMeL]T[NBuGly][NMeF][NMeL]V[NMeL]D-Piperidide; lactam N-11) | 1.8 ×10⁻⁶ cm/s

assay: Membrane permeability test of cyclic peptides (Caco-2, modified/improved method of WO 2018/124162); conditions: human, Caco-2, Caco-2 (cm/sec), membrane permeability of cyclic peptides, Caco-2

SMILES | Papp
CC[C@H](C)[C@H]1C(=O)N[C@@H]([C@@H](C)O)C(=O)N(C)CC(=O)N(C)[C@@H](CC)C(=O)N[C@H](C(=O)N2CCCCC2)CC(=O)N(C)[C@@H](CC(C)C)C(=O)N[C@@H](Cc2ccc(C(=O)NC)c(OC)c2)C(=O)N(C)[C@@H](CC(C)C)C(=O)N(C)[C@@H](Cc2ccccc2)C(=O)N[C@@H](CC(C)C)C(=O)N(C)[C@@H](CC(C)C)C(=O)N1C [AP31] ([NMeL][Phe(3-OMe,4-CONHMe)][NMeL][NMeF]L[NMeL][NMeI]T[Sar][NMeAbu]D-Piperidide; lactam N-11) | 0.52 ×10⁻⁶ cm/s
CCCCN1CC(=O)N(C)[C@@H](CC(C)C)C(=O)NC(COCc2noc(=O)[nH]2)C(=O)N(C)[C@@H](CC(C)C)C(=O)N(C)[C@@H](CC(C)C)C(=O)N[C@H](C(=O)N2CCCCC2)CC(=O)N[C@H](C(C)C)C(=O)N(C)[C@@H](Cc2ccccc2)C(=O)N[C@@H](CC(C)C)C(=O)N(C)[C@@H](CC(C)C)C(=O)N[C@@H]([C@@H](C)O)C1=O (stereo partly drawn) [AP43] ([dV][NMeF]L[NMeL]T[NBuGly][NMeL][ξS](CH2(1,2,4-oxadiazolon-3-yl))[NMeL][NMeL]D-Piperidide; lactam N-11) | 0.82 ×10⁻⁶ cm/s
CCCCN1CC(=O)C(C)[C@@H](CC(C)C)C(=O)NC(COCc2noc(=O)[nH]2)C(=O)N(C)[C@@H](Cc2ccccc2)C(=O)N(C)[C@@H](CC(C)C)C(=O)N[C@H](C(=O)N2CCCCC2)CC(=O)N[C@H](CC(C)C)C(=O)N(C)[C@@H](CC(C)C)C(=O)N[C@@H]([C@@H](C)CC)C(=O)N(C)[C@@H](CC(C)C)C(=O)N[C@@H]([C@@H](C)O)C1=O (stereo partly drawn) [AP44] ([dL][NMeL]I[NMeL]T[X15][ξS](CH2(1,2,4-oxadiazolon-3-yl))[NMeF][NMeL]D-Piperidide; lactam N-10) | 0.3 ×10⁻⁶ cm/s
CCCCN1CC(=O)N(C)[C@@H](CC(C)C)C(=O)N[C@@H](COC(C)(C)C)C(=O)N(C)[C@@H](CC(C)C)C(=O)N(C)[C@@H](CC(C)C)C(=O)N[C@H](C(=O)N2CCCCC2)CC(=O)N[C@H](CC(C)C)C(=O)N(C)[C@@H](Cc2ccccc2)C(=O)NC(COCc2noc(=O)[nH]2)C(=O)N(C)[C@@H](CC(C)C)C(=O)N[C@@H]([C@@H](C)O)C1=O (stereo partly drawn) [AP45] ([dL][NMeF][ξS](CH2(1,2,4-oxadiazolon-3-yl))[NMeL]T[NBuGly][NMeL]S(tBu)[NMeL][NMeL]D-Piperidide; lactam N-11) | 1.4 ×10⁻⁶ cm/s
CC[C@H](C)[C@@H]1NC(=O)[C@H](CC(C)C)N(C)C(=O)CCCN(C)C(=O)C[C@@H](C(=O)N2CCCCC2)NC(=O)[C@H](CC(C)C)N(C)C(=O)[C@H](CC(C)C)N(C)C(=O)[C@H]([C@@H](C)O)NC(=O)[C@H](CC(C)C)N(C)C(=O)C(COCc2noc(=O)[nH]2)NC(=O)[C@H](CC(C)C)N(C)C(=O)[C@H](Cc2cccc(Cl)c2)N(C)C1=O (stereo partly drawn) [AP46] ([NMeGABA][NMeL]I[NMePhe(3-Cl)][NMeL][ξS](CH2(1,2,4-oxadiazolon-3-yl))[NMeL]T[NMeL][NMeL]D-Piperidide; lactam N-11) | 0.22 ×10⁻⁶ cm/s
CCCCN1CC(=O)N(C)[C@@H](CC(C)C)C(=O)N[C@H](C(=O)N2CCCCC2)CC(=O)N(C)[C@@H](CC)C(=O)N[C@@H](CC(C)C)C(=O)N(C)[C@@H](CC(C)C)C(=O)N(C)[C@@H](Cc2ccccc2)C(=O)NC(COCc2noc(=O)[nH]2)C(=O)N(C)[C@@H](CC(C)C)C(=O)N(C)[C@@H](CC(C)C)C(=O)N[C@@H]([C@@H](C)O)C1=O (stereo partly drawn) [AP47] ([NMeAbu]L[NMeL][NMeF][ξS](CH2(1,2,4-oxadiazolon-3-yl))[NMeL][NMeL]T[NBuGly][NMeL]D-Piperidide; lactam N-11) | 5.3 ×10⁻⁶ cm/s
CCCCN1CC(=O)N(C)[C@@H](CC(C)C)C(=O)N[C@H](C(=O)N2CCCCC2)CC(=O)N(C)[C@@H](CC(C)C)C(=O)NC(COCc2noc(=O)[nH]2)C(=O)N(C)[C@@H](CC(C)C)C(=O)N(C)[C@@H](CC(C)C)C(=O)N[C@@H](C(C)C)C(=O)N(C)[C@@H](Cc2ccccc2)C(=O)N(C)[C@@H](CC(C)C)C(=O)N[C@@H]([C@@H](C)O)C1=O (stereo partly drawn) [AP48] ([NMeL][ξS](CH2(1,2,4-oxadiazolon-3-yl))[NMeL][NMeL]V[NMeF][NMeL]T[NBuGly][NMeL]D-Piperidide; lactam N-11) | 0.4 ×10⁻⁶ cm/s
CCCCN1CC(=O)N(C)[C@@H](Cc2cccc(Cl)c2)C(=O)N(C)[C@@H](CC(C)C)C(=O)N[C@@H]([C@@H](C)CC)C(=O)N(C)[C@@H](CC(C)C)C(=O)N[C@H](C(=O)N2CCCCC2)CC(=O)N(C)CC(=O)N(C)[C@@H](CC(C)C)C(=O)NC(COCc2noc(=O)[nH]2)C(=O)N(C)[C@@H](CC(C)C)C(=O)N[C@@H]([C@@H](C)O)C1=O (stereo partly drawn) [AP49] ([Sar][NMeL][ξS](CH2(1,2,4-oxadiazolon-3-yl))[NMeL]T[NBuGly][NMePhe(3-Cl)][NMeL]I[NMeL]D-Piperidide; lactam N-11) | 0.33 ×10⁻⁶ cm/s
CCCCN1CC(=O)N(C)[C@@H](Cc2cccc(Cl)c2)C(=O)N(C)[C@@H](CC(C)C)C(=O)N[C@@H](COCc2noc(=O)[nH]2)C(=O)N(C)[C@@H](CC(C)C)C(=O)N[C@H](C(=O)N2CCCCC2)CC(=O)N(C)CC(=O)N(C)[C@@H](CC(C)C)C(=O)N[C@@H]([C@@H](C)CC)C(=O)N(C)[C@@H](CC(C)C)C(=O)N[C@@H]([C@@H](C)O)C1=O [AP50] ([Sar][NMeL]I[NMeL]T[NBuGly][NMePhe(3-Cl)][NMeL]S(CH2(1,2,4-oxadiazolon-3-yl))[NMeL]D-Piperidide; lactam N-11) | 0.11 ×10⁻⁶ cm/s
CC[C@H](C)[C@@H]1NC(=O)[C@H](CC(C)C)N(C)C(=O)[C@H](COC(C)(C)C)NC(=O)[C@H](Cc2ccccc2)N(C)C(=O)[C@H](Cc2ccccc2)N(C)C(=O)[C@H](COC[C@@H](C)O)NC(=O)[C@H](CC(C)C)N(C)C(=O)CCCN(C)C(=O)C[C@@H](C(=O)N2CCCCC2)NC(=O)[C@H](CC(C)C)N(C)C(=O)[C@H](CC(C)C)N(C)C1=O [AP84] ([NMeGABA][NMeL]S(Propyl(2R-OH))[NMeF][NMeF]S(tBu)[NMeL]I[NMeL][NMeL]D-Piperidide; lactam N-11) | 0.58 ×10⁻⁶ cm/s

— patent US20230096766A1, “AMINO ACID HAVING FUNCTIONAL GROUP CAPABLE OF INTERMOLECULAR HYDROGEN BONDING, PEPTIDE COMPOUND CONTAINING SAME AND METHOD FOR PRODUCTION THEREOF” (Chugai Seiyaku Kabushiki Kaisha, priority 2018, published 2023)
